Experimental data as given in patent US9890175B2, “Taxane compound, and preparation method and use thereof” (JIANGSU TASLY DIYI PHARMACEUTICAL CO., LTD., priority 2013, dated 2018).
Where two headings read alike, the source gives them in different places.

How the values were obtained:
[1] = tested on: HT-29 colon cancer; test: MTT proliferation inhibition, HT-29; format: cell-based; conditions: Homo sapiens, HT-29, read-out: Proliferation inhibition rate, HT29 Colon cancer
From the text: (§1) 1. Cytotoxicity Assay Using Human Tumor Cell Lines
(§2) Paclitaxel was used as the positive drug.

[2] = tested on: MCF-7 breast cancer cells; test: MTT proliferation inhibition, MCF-7; format: cell-based; conditions: Homo sapiens, MCF7, read-out: Proliferation inhibition rate, MCF-7 Breast cancer
From the text: as §1, §2

[3] = tested on: MDA-MB-436 breast cancer cells; test: MTT proliferation inhibition, MDA-MB-436; format: cell-based; conditions: Homo sapiens, MDA-MB-436, read-out: Proliferation inhibition rate, MDA-MB-436 Breast cancer
From the text: as §1, §2

[4] = tested on: A375 melanoma; test: MTT proliferation inhibition, A375; format: cell-based; conditions: Homo sapiens, A-375, read-out: Proliferation inhibition rate, A375 Melanoma
From the text: as §1, §2

[5] = tested on: BGC-823 gastric cancer; test: MTT proliferation inhibition, BGC-823; format: cell-based; conditions: Homo sapiens, BGC-823, read-out: Proliferation inhibition rate, BGC-823 Gastric cancer
From the text: as §1, §2

[6] = tested on: LNCaP prostate cancer; test: MTT proliferation inhibition, LNCaP; format: cell-based; conditions: Homo sapiens, read-out: Proliferation inhibition rate, LNCaP Prostate cancer
From the text: as §1, §2

[7] = tested on: HCT 116 colon cancer; test: MTT proliferation inhibition, HCT 116; format: cell-based; conditions: Homo sapiens, HCT-116, read-out: Proliferation inhibition rate, HCT 116 Colon cancer
From the text: as §1, §2

[8] = tested on: LN-18; test: MTT proliferation inhibition, LN-18; format: cell-based; conditions: Homo sapiens, LN-18, read-out: Proliferation inhibition rate, LN-18 Gastric canser
From the text: as §1, §2

[9] = tested on: B16 melanoma; test: MTT proliferation inhibition, B16; format: cell-based; conditions: B16, read-out: Proliferation inhibition rate, B16 Melanoma
From the text: as §1, §2

[10] = Caco-2 cell monolayer membrane transport assay (Papp and recovery); format: in vitro ADME; conditions: human, Caco-2, Caco-2, A-B
From the text: Caco-2 Cell Monolayer Membrane Transport Assay
Human-derived colorectal adenocarcinoma cell line Caco-2 cell monolayer model was used to study the bidirectional transport of the target compounds from the apical (AP) side to the basolateral (BL) side and from BL side to AP side. HPLC was used for quantitative analysis to calculate transport parameters, apparent permeability coefficient (Papp) and the efflux ratio.

[11] = tested on: NCI-H460 non-small cell lung cancer; test: MTT proliferation inhibition, NCI-H460; format: cell-based; conditions: Homo sapiens, NCI-H460, read-out: Proliferation inhibition rate, NCI-H460 Non-small cell lung cancer
From the text: as §1, §2

[12] = tested on: A2780 ovarian cancer; test: MTT proliferation inhibition, A2780; format: cell-based; conditions: Homo sapiens, A2780, read-out: Proliferation inhibition rate, A2780 Ovarian cancer
From the text: as §1, §2

[13] = tested on: breast cancer cell line MCF-7; test: IC50 on breast cancer cell line MCF-7; format: cell-based; conditions: Homo sapiens, MCF7, 72 h, read-out: MCF-7 (IC50, nM)
Method: From the activity evaluation data of the above-mentioned preliminary screen, it can be seen that the series of taxanes derivatives synthesized in the present invention have activity. Afterward, the compounds are investigated to examine their IC50 values on breast cancer cell line MCF-7. […] Experiments for each compound were independently repeated for three times and multiple holes were used in each experiment. The exposure time of drugs was 72 hours.

[14] = tested on: A549 non-small cell lung cancer; test: MTT proliferation inhibition, A549; format: cell-based; conditions: Homo sapiens, A549, read-out: Proliferation inhibition rate, A549 Non-small cell lung cancer
From the text: as §1, §2

[15] = tested on: Du145 prostate cancer; test: MTT proliferation inhibition, Du145; format: cell-based; conditions: Homo sapiens, DU-145, read-out: Proliferation inhibition rate, DU145 Prostate cancer
From the text: as §1, §2

[16] = tested on: HL-60 leukemia; test: MTT proliferation inhibition, HL-60; format: cell-based; conditions: Homo sapiens, HL-60, read-out: Proliferation inhibition rate, HL60 Leukemia
From the text: as §1, §2

[17] = tested on: K562 leukemia; test: MTT proliferation inhibition, K562; format: cell-based; conditions: Homo sapiens, K562, read-out: Proliferation inhibition rate, K562 Leukemia
From the text: as §1, §2

[18] = tested on: Hela cervical cancer; test: MTT proliferation inhibition, HeLa; format: cell-based; conditions: Homo sapiens, read-out: Proliferation inhibition rate, HeLa Uterin cancer
From the text: as §1, §2

[19] = Mean, read-out: Recovery rate in mass, Mean
[20] = Sample-01, read-out: Papp A-B, Sample-01
[21] = Sample-01, read-out: Recovery rate in mass, Sample-01
[22] = Sample-02, read-out: Papp A-B, Sample-02
[23] = Sample-02, read-out: Recovery rate in mass, Sample-02

CO[C@H]1C(=O)[C@]2(C)[C@@H](OC)C[C@H]3OC[C@@]3(OC(C)=O)[C@H]2[C@H](OC(=O)c2ccccc2)[C@]23OC(=O)O[C@H]2[C@H](OC(=O)[C@H](O)[C@@H](NC(=O)c2ccccc2)c2ccccc2)C(C)=C1C3(C)C [PCMI-02]
inhibition at 1 µM [1]: 89%
inhibition at 1 µM [2]: 93.5%
inhibition at 1 µM [3]: 82.6%
inhibition at 1 µM [4]: 89.8%
inhibition at 1 µM [5]: 94.2%
inhibition at 1 µM [6]: 83.7%
inhibition at 1 µM [7]: 66.4%
inhibition at 1 µM [8]: 96.6%
inhibition at 1 µM [9]: 84.1%
recovery [10, 19]: 50.8%
Papp A→B [10, 20]: 1.5 ×10⁻⁶ cm/s
recovery [10, 21]: 44.1%
Papp A→B [10, 22]: 1.47 ×10⁻⁶ cm/s
recovery [10, 23]: 57.4%
inhibition at 1 µM [11]: 82.2%
inhibition at 1 µM [12]: 94.7%
IC50 [13]: 6.93 ± 0.12 nM
inhibition at 1 µM [14]: 79.6%
inhibition at 1 µM [15]: 84.7%
inhibition at 1 µM [16]: 95.9%
inhibition at 1 µM [17]: 94.7%
inhibition at 1 µM [18]: 98.2%

CO[C@H]1C[C@H]2OC[C@@]2(OC(C)=O)[C@H]2[C@H](OC(=O)c3ccccc3)[C@]34OC(=O)O[C@H]3[C@H](OC(=O)[C@H](O)[C@H](CC(C)C)NC(=O)OC(C)(C)C)C(C)=C([C@@H](OC(=O)N(C)C)C(=O)[C@]12C)C4(C)C [PCMI-10]
inhibition at 1 µM [1]: 86.2%
inhibition at 1 µM [2]: 85.9%
inhibition at 1 µM [3]: 77.3%
inhibition at 1 µM [4]: 94.2%
inhibition at 1 µM [5]: 91.2%
inhibition at 1 µM [6]: 85.9%
inhibition at 1 µM [7]: 65.6%
inhibition at 1 µM [8]: 93.7%
inhibition at 1 µM [9]: 71.4%
recovery [10, 19]: 37.3%
Papp A→B [10, 20]: 1.25 ×10⁻⁶ cm/s
recovery [10, 21]: 34%
Papp A→B [10, 22]: 0.89 ×10⁻⁶ cm/s
recovery [10, 23]: 40.5%
inhibition at 1 µM [11]: 81%
inhibition at 1 µM [12]: 95%
IC50 [13]: 6.44 ± 0.18 nM
inhibition at 1 µM [14]: 70.5%
inhibition at 1 µM [15]: 88%
inhibition at 1 µM [16]: 97.5%
inhibition at 1 µM [17]: 90.6%
inhibition at 1 µM [18]: 99.9%

CO[C@H]1C[C@H]2OC[C@@]2(OC(C)=O)[C@H]2[C@H](OC(=O)c3ccccc3)[C@]34OC(=O)O[C@H]3[C@H](OC(=O)[C@H](O)[C@@H](NC(=O)N(C)C)c3ccccc3)C(C)=C([C@@H](OC(=O)N(C)C)C(=O)[C@]12C)C4(C)C [PCMI-11]
inhibition at 1 µM [1]: 85.9%
inhibition at 1 µM [2]: 82.4%
inhibition at 1 µM [3]: 79%
inhibition at 1 µM [4]: 92.4%
inhibition at 1 µM [5]: 90.6%
inhibition at 1 µM [6]: 86.5%
inhibition at 1 µM [7]: 64.3%
inhibition at 1 µM [8]: 92.9%
inhibition at 1 µM [9]: 72.6%
Papp A→B ([10]; Mean, read-out: Papp A-B, Mean): 1.13 ×10⁻⁶ cm/s
recovery [10, 19]: 79.9%
Papp A→B [10, 20]: 1.24 ×10⁻⁶ cm/s
recovery [10, 21]: 79.7%
Papp A→B [10, 22]: 1.02 ×10⁻⁶ cm/s
recovery [10, 23]: 80.2%
inhibition at 1 µM [11]: 82.2%
inhibition at 1 µM [12]: 94.6%
IC50 [13]: 4.25 ± 0.06 nM
inhibition at 1 µM [14]: 72.3%
inhibition at 1 µM [15]: 87.2%
inhibition at 1 µM [16]: 97.9%
inhibition at 1 µM [17]: 92.1%
inhibition at 1 µM [18]: 99.6%

COC(=O)O[C@H]1C[C@H]2OC[C@@]2(OC(C)=O)[C@H]2[C@H](OC(=O)c3ccccc3)[C@]34OC(=O)O[C@H]3[C@H](OC(=O)[C@H](O)[C@@H](NC(=O)OC(C)(C)C)c3ccccn3)C(C)=C([C@@H](OC)C(=O)[C@]12C)C4(C)C [PCMI-18]
inhibition at 1 µM [1]: 85.2%
inhibition at 1 µM [2]: 96.2%
inhibition at 1 µM [3]: 82.3%
inhibition at 1 µM [4]: 95.1%
inhibition at 1 µM [5]: 94.3%
inhibition at 1 µM [6]: 84.6%
inhibition at 1 µM [7]: 68.3%
inhibition at 1 µM [8]: 94.7%
inhibition at 1 µM [9]: 81.2%
Papp A→B ([10]; Mean, read-out: Papp A-B, Mean): 2.49 ×10⁻⁶ cm/s
recovery [10, 19]: 88.3%
Papp A→B [10, 20]: 2.65 ×10⁻⁶ cm/s
recovery [10, 21]: 85.6%
Papp A→B [10, 22]: 2.33 ×10⁻⁶ cm/s
recovery [10, 23]: 90.9%
inhibition at 1 µM [11]: 88.6%
inhibition at 1 µM [12]: 95.7%
IC50 [13]: 4.12 ± 0.16 nM
inhibition at 1 µM [14]: 78.7%
inhibition at 1 µM [15]: 89.7%
inhibition at 1 µM [16]: 97.8%
inhibition at 1 µM [17]: 94.5%
inhibition at 1 µM [18]: 98.8%

CO[C@H]1C(=O)[C@]2(C)[C@@H](OC)C[C@H]3OC[C@@]3(OC(C)=O)[C@H]2[C@H](OC(=O)c2ccccc2)[C@]23OC(=O)O[C@H]2[C@H](OC(=O)[C@H](O)[C@H](CC(C)C)NC(=O)OC(C)(C)C)C(C)=C1C3(C)C [PCMI-05]
inhibition at 1 µM [1]: 87.9%
inhibition at 1 µM [2]: 84.9%
inhibition at 1 µM [3]: 74.5%
inhibition at 1 µM [4]: 87.9%
inhibition at 1 µM [5]: 90.9%
inhibition at 1 µM [6]: 81.6%
inhibition at 1 µM [7]: 58.7%
inhibition at 1 µM [8]: 93.3%
inhibition at 1 µM [9]: 71.5%
recovery [10, 19]: 54.7%
Papp A→B [10, 20]: 2.59 ×10⁻⁶ cm/s
recovery [10, 21]: 58.1%
Papp A→B [10, 22]: 2.56 ×10⁻⁶ cm/s
recovery [10, 23]: 51.3%
inhibition at 1 µM [11]: 82%
inhibition at 1 µM [12]: 94.6%
IC50 [13]: 4.04 ± 0.18 nM
inhibition at 1 µM [14]: 67.8%
inhibition at 1 µM [15]: 83.9%
inhibition at 1 µM [16]: 97.2%
inhibition at 1 µM [17]: 91.4%
inhibition at 1 µM [18]: 99.5%

COC(=O)O[C@H]1C(=O)[C@]2(C)[C@@H](OC)C[C@H]3OC[C@@]3(OC(C)=O)[C@H]2[C@H](OC(=O)c2ccccc2)[C@]23OC(=O)O[C@H]2[C@H](OC(=O)[C@H](O)[C@@H](NC(=O)OC(C)(C)C)c2ccccc2)C(C)=C1C3(C)C [PCMI-12]
inhibition at 1 µM [1]: 85.4%
inhibition at 1 µM [2]: 81.8%
inhibition at 1 µM [3]: 81.4%
inhibition at 1 µM [4]: 92%
inhibition at 1 µM [5]: 93%
inhibition at 1 µM [6]: 86.3%
inhibition at 1 µM [7]: 66.6%
inhibition at 1 µM [8]: 93.4%
inhibition at 1 µM [9]: 75.9%
Papp A→B ([10]; Mean, read-out: Papp A-B, Mean): < 1.43 ×10⁻⁶ cm/s
recovery [10, 19]: 27.8 to 39.5%
Papp A→B [10, 20]: < 1.36 ×10⁻⁶ cm/s
recovery [10, 21]: 27.8 to 29.1%
Papp A→B [10, 22]: < 1.43 ×10⁻⁶ cm/s
recovery [10, 23]: 38.2 to 39.5%
inhibition at 1 µM [11]: 82.3%
inhibition at 1 µM [12]: 94.3%
IC50 [13]: 3.24 ± 0.04 nM
inhibition at 1 µM [14]: 73.6%
inhibition at 1 µM [15]: 86.7%
inhibition at 1 µM [16]: 97.2%
inhibition at 1 µM [17]: 91.2%
inhibition at 1 µM [18]: 100%
